Measurements published in patent US20140349924A1 (Novo Nordisk A/S, priority 2007, published 2014).
Each block holds one molecule with its values, some of them ahead of it.

Legend:
[1] = 293.2 Kelvin; static electric fields or relatively low frequencies; cited from earlier work
[2] = freshly excised rat gut sacs (small intestine) incubated in culture medium pH 7.4; details: 37° C, up to 2 h
[3] = freeze dried from aqueous solutions with pH moved below the isoelectric point; cited from earlier work

Molecule: CO [Methanol]
Dielectricity constant, ε* [1]: 33.0

fragment found [2]: degradation product (peak ˜5218), 2 h
Molecule: Asp^B28 human insulin

Molecule: lysozyme: lysozyme lyophilized from aqueous solution, literature example (Klibanov et al)
Solubility in 1,5 pentanediol [3]: markedly increased
